Experimental data reported in ChEMBL document CHEMBL5705899 (Biochem J, 2014).
Calls of active or inactive are those of the source. No cut-off for these calls is given here.

Legend:
[1] = biological target: Phosphatidylinositol 4,5-bisphosphate 3-kinase catalytic subunit gamma isoform (Homo sapiens, UniProt P48736); assay: Inhibition of PI3Kgamma (unknown origin) using PtdIns(4,5)P2 as substrate preincubated for 20 mins followed by substrate addition and measured after 80 mins by Kinase-Glo assay
[2] = biological target: Casein kinase I isoform gamma-3 (Homo sapiens) (UniProt Q9Y6M4); assay: Inhibition of human CK1gamma3 at 1 uM using casein as substrate in presence of 33P-ATP by ProQinase assay
[3] = biological target: Mitogen-activated protein kinase 11 (Homo sapiens) (UniProt Q15759); assay: Inhibition of recombinant human N-terminal GST-tagged P38beta (1 to 364 residues) expressed in Escherichia coli assessed as remaining activity at 1 uM using MBP as substrate incubated for 30 mins in presence of [gamma-33P]ATP by filter binding method relative to control
[4] = biological target: Calcium/calmodulin-dependent protein kinase type 1D (Homo sapiens) (UniProt Q8IU85); assay: Inhibition of human CAMK1D at 1 uM using RBER-CHKtide as substrate in presence of 33P-ATP by ProQinase assay
[5] = biological target: Serine/threonine-protein kinase N2 (Homo sapiens) (UniProt Q16513); assay: Inhibition of recombinant N-terminal His6/FLAG-tagged human PRK2 (501 to 984 residues) expressed in baculovirus infected Sf21 cells assessed as remaining activity at 1 uM using S6 peptide as substrate incubated for 30 mins in presence of [gamma-33P]ATP by filter binding method relative to control
[6] = biological target: Dual specificity protein kinase CLK4 (Homo sapiens) (UniProt Q9HAZ1); assay: Inhibition of human CLK4 at 1 uM using MBP as substrate in presence of 33P-ATP by ProQinase assay
[7] = biological target: Phosphatidylinositol 5-phosphate 4-kinase type-2 alpha (Homo sapiens) (UniProt P48426); assay: Inhibition of recombinant human N-terminal His6-tagged PIP5K2alpha (1 to 406 residues) expressed in Escherichia coli at 1 uM using diC8 PI(5)P as substrate incubated for 40 mins by ADP-Glo assay
[8] = biological target: LIM domain kinase 1 (Homo sapiens) (UniProt P53667); assay: Inhibition of human LIMK1 at 1 uM using CFL2 as substrate in presence of 33P-ATP by ProQinase assay
[9] = biological target: Serine/threonine-protein kinase PLK4 (Homo sapiens) (UniProt O00444); assay: Inhibition of human SAK at 1 uM using p38-alpha KA as substrate in presence of 33P-ATP by ProQinase assay
[10] = biological target: Serine/threonine-protein kinase 17A (Homo sapiens) (UniProt Q9UEE5); assay: Inhibition of human STK17A at 1 uM using RB-CTF as substrate in presence of 33P-ATP by ProQinase assay
[11] = biological target: Serine/threonine-protein kinase 3 (Homo sapiens) (UniProt Q13188); assay: Inhibition of recombinant human N-terminal GST-tagged MST2 (2 to 491 residues) expressed in baculovirus infected Sf21 cells assessed as remaining activity at 1 uM using MBP as substrate incubated for 30 mins in presence of [gamma-33P]ATP by filter binding method relative to control
[12] = biological target: Receptor tyrosine-protein kinase erbB-4 (Homo sapiens) (UniProt Q15303); assay: Inhibition of human ERBB4 at 1 uM using polyEy as substrate in presence of 33P-ATP by ProQinase assay
[13] = biological target: Serine/threonine-protein kinase 24 (Homo sapiens) (UniProt Q9Y6E0); assay: Inhibition of human MST3 at 1 uM using casein as substrate in presence of 33P-ATP by ProQinase assay
[14] = biological target: Tyrosine-protein kinase TXK (Homo sapiens) (UniProt P42681); assay: Inhibition of human TXK at 1 uM using RBER-CHKtide as substrate in presence of 33P-ATP by ProQinase assay
[15] = biological target: Serine/threonine-protein kinase Nek2 (Homo sapiens) (UniProt P51955); assay: Inhibition of recombinant human N-terminal His6-tagged NEK2A (1 to 445 residues) expressed in baculovirus infected Sf21 cells assessed as remaining activity at 1 uM using RFRRSRRMI as substrate incubated for 30 mins in presence of [gamma-33P]ATP by filter binding method relative to control
[16] = biological target: Serine/threonine-protein kinase 33 (Homo sapiens) (UniProt Q9BYT3); assay: Inhibition of recombinant human N-terminal GST-tagged STK33 (1 to 514 residues) expressed in baculovirus infected Sf21 cells assessed as remaining activity at 1 uM using AALVRQMSVAFFFKKKKK as substrate incubated for 30 mins in presence of [gamma-33P]ATP by filter binding method relative to control
[17] = biological target: Dual specificity tyrosine-phosphorylation-regulated kinase 1A (Homo sapiens) (UniProt Q13627); assay: Inhibition of human DYRK1A at 1 uM using RBER-CHKtide as substrate in presence of 33P-ATP by ProQinase assay
[18] = biological target: CDK7/Cyclin H/MNAT1 (Homo sapiens) (UniProt P51946+P50613+P51948); assay: Inhibition of human CDK7/CyclinH/MAT1 at 1 uM using RBER-CHKtide as substrate in presence of 33P-ATP by ProQinase assay; type: protein-complex assay
[19] = biological target: cAMP-dependent protein kinase catalytic subunit PRKX (Homo sapiens) (UniProt P51817); assay: Inhibition of human PRKX at 1 uM using RBER-GSK3 as substrate in presence of 33P-ATP by ProQinase assay
[20] = biological target: Myotonin-protein kinase (Homo sapiens) (UniProt Q09013); assay: Inhibition of human DMPK at 1 uM using RBER-CHKtide as substrate in presence of 33P-ATP by ProQinase assay
[21] = biological target: Casein kinase I isoform gamma-2 (Homo sapiens) (UniProt P78368); assay: Inhibition of human CK1gamma2 at 1 uM using casein as substrate in presence of 33P-ATP by ProQinase assay
[22] = biological target: MAP kinase-activated protein kinase 2 (Homo sapiens) (UniProt P49137); assay: Inhibition of recombinant human N-terminal GST/C-terminal Myc-tagged MAPKAPK2 (46 to 400 residues) expressed in Escherichia coli assessed as remaining activity at 1 uM using KKLNRTLSVA as substrate incubated for 30 mins in presence of [gamma-33P]ATP by filter binding method relative to control
[23] = biological target: Mitogen-activated protein kinase kinase kinase kinase 2 (Homo sapiens) (UniProt Q12851); assay: Inhibition of recombinant human N-terminal His6-tagged GCK (2 to 812 residues) expressed in baculovirus infected Sf21 cells assessed as remaining activity at 1 uM using MBP as substrate incubated for 30 mins in presence of [gamma-33P]ATP by filter binding method relative to control
[24] = biological target: PAS domain-containing serine/threonine-protein kinase (Homo sapiens) (UniProt Q96RG2); assay: Inhibition of human PASK at 1 uM using RBER-CHKtide as substrate in presence of 33P-ATP by ProQinase assay
Sequence of PAS domain-containing serine/threonine-protein kinase (Homo sapiens) (Q96RG2 whole entry, the tested form may be a part): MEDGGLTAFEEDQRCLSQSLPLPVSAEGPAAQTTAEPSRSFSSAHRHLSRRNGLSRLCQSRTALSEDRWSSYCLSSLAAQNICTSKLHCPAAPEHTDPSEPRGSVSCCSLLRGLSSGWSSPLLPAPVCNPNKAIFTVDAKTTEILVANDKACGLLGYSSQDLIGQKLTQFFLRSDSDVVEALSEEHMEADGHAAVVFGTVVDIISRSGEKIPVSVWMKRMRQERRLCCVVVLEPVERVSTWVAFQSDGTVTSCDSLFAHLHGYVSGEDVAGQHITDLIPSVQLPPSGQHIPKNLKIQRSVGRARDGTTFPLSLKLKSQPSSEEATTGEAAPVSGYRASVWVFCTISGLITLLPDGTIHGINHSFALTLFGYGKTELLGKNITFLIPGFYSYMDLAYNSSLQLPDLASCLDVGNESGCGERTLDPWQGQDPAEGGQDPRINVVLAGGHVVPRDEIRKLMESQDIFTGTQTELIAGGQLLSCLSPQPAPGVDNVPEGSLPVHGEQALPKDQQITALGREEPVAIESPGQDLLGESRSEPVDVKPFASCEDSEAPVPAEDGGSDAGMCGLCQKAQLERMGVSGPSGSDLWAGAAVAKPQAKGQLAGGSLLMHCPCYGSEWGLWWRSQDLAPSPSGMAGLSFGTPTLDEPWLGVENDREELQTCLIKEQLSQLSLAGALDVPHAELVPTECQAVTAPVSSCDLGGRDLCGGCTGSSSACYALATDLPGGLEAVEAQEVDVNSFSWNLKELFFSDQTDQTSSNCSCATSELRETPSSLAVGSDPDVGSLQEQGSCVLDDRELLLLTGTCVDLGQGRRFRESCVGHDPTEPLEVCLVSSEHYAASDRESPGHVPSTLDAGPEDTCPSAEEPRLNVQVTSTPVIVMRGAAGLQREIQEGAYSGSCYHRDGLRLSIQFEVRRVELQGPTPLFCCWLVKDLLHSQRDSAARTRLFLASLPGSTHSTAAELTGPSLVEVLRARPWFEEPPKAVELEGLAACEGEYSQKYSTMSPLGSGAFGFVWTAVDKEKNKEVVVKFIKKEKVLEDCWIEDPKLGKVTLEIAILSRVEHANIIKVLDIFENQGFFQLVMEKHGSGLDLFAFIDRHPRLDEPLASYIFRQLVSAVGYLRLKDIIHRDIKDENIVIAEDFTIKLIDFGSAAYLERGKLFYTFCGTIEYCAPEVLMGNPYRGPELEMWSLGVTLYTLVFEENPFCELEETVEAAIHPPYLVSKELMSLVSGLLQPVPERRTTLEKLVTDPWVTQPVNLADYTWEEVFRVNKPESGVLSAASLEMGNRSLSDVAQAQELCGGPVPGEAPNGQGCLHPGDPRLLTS

Sequence of Calcium/calmodulin-dependent protein kinase type 1D (Homo sapiens) (Q8IU85 whole entry, looked up, the tested form may be a part): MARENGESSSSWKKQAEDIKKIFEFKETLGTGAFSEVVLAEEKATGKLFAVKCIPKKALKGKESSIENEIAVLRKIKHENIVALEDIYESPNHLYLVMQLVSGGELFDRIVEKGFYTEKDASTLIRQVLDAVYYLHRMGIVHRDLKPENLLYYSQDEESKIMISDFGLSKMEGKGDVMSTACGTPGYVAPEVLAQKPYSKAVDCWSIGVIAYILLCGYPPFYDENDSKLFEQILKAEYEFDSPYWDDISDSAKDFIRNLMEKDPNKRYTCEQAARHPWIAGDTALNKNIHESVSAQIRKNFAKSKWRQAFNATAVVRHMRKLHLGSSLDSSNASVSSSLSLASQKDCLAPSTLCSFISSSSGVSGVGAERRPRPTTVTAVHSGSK
Sequence of Mitogen-activated protein kinase 11 (Homo sapiens) (Q15759 whole entry, the tested form may be a part): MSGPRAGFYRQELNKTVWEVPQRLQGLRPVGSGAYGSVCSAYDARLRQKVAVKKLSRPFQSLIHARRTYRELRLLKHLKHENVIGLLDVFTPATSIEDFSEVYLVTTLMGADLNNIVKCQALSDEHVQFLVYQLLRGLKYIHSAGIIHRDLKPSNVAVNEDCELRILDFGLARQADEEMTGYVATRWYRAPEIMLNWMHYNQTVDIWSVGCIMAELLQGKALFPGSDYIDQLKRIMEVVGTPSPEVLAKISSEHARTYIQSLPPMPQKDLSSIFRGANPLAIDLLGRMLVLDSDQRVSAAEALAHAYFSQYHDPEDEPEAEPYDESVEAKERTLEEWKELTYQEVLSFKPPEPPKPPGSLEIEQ
Sequence of Myotonin-protein kinase (Homo sapiens) (Q09013 whole entry, canonical isoform): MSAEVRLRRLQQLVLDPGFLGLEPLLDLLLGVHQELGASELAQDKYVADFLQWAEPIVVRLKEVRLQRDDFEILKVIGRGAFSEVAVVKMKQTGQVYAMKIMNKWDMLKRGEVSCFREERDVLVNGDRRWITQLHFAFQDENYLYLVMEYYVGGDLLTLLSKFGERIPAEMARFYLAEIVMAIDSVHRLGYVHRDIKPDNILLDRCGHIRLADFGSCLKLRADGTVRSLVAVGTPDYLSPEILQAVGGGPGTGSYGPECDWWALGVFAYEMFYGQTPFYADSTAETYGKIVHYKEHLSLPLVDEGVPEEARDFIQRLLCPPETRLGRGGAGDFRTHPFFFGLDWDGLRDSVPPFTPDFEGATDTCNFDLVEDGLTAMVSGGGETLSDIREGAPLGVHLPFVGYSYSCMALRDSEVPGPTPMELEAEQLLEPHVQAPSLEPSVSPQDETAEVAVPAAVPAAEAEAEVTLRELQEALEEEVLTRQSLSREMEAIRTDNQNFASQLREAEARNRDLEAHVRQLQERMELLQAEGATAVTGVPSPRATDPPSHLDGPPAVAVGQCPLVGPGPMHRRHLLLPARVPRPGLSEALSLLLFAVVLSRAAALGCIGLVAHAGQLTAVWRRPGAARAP
Sequence of Serine/threonine-protein kinase 17A (Homo sapiens) (Q9UEE5 whole entry, the tested form may be a part): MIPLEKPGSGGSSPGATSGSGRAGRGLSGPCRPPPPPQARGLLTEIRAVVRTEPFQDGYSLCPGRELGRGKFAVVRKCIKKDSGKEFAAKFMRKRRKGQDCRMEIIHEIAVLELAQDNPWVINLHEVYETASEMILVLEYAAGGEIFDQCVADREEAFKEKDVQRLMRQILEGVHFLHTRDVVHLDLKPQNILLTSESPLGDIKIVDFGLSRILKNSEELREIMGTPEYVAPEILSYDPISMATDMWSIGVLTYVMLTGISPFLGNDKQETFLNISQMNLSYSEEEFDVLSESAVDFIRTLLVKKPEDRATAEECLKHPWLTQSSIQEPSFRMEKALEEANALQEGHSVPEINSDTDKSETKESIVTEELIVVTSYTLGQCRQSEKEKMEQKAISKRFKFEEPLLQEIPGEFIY
Sequence of MAP kinase-activated protein kinase 2 (Homo sapiens) (P49137 whole entry, looked up, the tested form may be a part): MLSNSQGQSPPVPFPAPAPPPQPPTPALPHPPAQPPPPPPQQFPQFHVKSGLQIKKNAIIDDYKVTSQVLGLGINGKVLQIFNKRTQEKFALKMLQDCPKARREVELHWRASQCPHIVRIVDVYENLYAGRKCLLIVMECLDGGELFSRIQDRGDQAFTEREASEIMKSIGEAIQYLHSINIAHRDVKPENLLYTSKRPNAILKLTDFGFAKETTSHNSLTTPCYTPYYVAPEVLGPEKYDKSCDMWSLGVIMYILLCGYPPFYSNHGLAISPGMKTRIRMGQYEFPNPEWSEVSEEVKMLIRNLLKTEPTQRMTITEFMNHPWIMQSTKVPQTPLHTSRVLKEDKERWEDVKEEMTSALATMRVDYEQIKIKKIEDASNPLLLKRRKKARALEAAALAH
Sequence of Phosphatidylinositol 5-phosphate 4-kinase type-2 alpha (Homo sapiens) (P48426 whole entry, the tested form may be a part): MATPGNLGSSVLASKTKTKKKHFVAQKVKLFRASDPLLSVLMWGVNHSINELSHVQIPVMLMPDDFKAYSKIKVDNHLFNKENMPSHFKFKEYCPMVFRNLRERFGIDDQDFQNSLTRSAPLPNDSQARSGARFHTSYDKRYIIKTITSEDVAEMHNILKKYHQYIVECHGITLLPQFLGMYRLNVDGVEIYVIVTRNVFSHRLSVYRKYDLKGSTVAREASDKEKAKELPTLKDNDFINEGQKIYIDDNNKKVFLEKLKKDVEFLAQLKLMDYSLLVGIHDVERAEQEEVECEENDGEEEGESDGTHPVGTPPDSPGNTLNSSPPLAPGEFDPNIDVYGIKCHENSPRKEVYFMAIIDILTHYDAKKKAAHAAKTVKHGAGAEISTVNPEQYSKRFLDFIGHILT
Sequence of Tyrosine-protein kinase TXK (Homo sapiens) (P42681 whole entry, the tested form may be a part): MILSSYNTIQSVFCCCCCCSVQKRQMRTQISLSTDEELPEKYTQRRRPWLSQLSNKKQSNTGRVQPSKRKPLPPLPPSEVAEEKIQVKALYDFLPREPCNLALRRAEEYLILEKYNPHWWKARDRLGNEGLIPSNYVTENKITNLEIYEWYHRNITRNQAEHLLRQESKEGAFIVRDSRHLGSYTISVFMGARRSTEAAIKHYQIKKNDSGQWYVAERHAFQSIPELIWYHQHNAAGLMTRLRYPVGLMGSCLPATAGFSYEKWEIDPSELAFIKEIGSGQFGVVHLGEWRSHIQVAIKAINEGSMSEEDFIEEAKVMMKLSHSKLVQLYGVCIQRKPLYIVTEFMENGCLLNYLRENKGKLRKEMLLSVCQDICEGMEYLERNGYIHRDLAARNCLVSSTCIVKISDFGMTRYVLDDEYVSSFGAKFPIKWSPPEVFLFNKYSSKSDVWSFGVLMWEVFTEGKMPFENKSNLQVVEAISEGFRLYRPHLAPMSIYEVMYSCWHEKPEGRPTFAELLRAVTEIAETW
Sequence of cAMP-dependent protein kinase catalytic subunit PRKX (Homo sapiens) (P51817 whole entry): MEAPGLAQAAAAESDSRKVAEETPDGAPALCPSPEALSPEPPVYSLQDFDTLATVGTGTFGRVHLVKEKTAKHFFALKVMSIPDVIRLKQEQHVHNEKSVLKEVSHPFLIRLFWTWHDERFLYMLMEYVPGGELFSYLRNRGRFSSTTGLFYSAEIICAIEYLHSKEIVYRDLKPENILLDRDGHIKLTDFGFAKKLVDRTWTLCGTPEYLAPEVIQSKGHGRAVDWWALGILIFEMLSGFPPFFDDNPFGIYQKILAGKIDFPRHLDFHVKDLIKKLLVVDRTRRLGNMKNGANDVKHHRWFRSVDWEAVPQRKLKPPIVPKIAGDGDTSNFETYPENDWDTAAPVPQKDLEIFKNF

In the case of `CC(C)(O)CNc1ncc(-c2ccnc(Nc3ccnc(Cl)c3)n2)c(CC2CC2)n1`, the IC50 [1] is reported as 2680 nM, the inhibition [2] is reported as “inactive” and the Activity [3] is reported as 115%. For the same compound, the inhibition [4] was “inactive”, the Activity [5] was 116% and the inhibition [6] was “inactive”. The inhibition [7] was “inactive”, the inhibition [8] was “inactive” and the inhibition [9] was “inactive”. For the same compound, the inhibition [10] was “inactive”, the Activity [11] was 120% and the inhibition [12] was “inactive”. For the same compound, the inhibition [13] was “inactive”, the inhibition [14] was “inactive” and the Activity [15] was 103%. For the same compound, the Activity [16] was 124%, the inhibition [17] was “inactive” and the inhibition [18] was “inactive”. The inhibition [19] was “inactive”, the inhibition [20] was “inactive” and the inhibition [21] was “inactive”. The Activity [22] was 110%, the Activity [23] was 104% and the inhibition [24] was “inactive”.
